Assay results taken from ChEMBL document CHEMBL3232741, “Isoxazoline containing natural products as anticancer agents: a review” (Eur J Med Chem, 2014).
≈ marks a conversion by molar mass, not a printed value.

Assays:
HeLa = test: Cytotoxicity against human HeLa cells; format: functional, cell-based
KB = test: Cytotoxicity against human KB cells; format: functional, cell-based
L1210 = test: Cytotoxicity against mouse L1210 cells; format: functional, cell-based
P388 = test: Cytotoxicity against mouse P388 cells; format: functional, cell-based
U-937 [1] = test: Antiproliferative activity against human U937 cells by MTT assay; format: functional, cell-based
U-937 [2] = test: Induction of apoptosis in human U937 cells after 24 to 48 hrs by annexin V/propidium iodide staining based flow cytometry; format: functional
Jurkat = test: Antiproliferative activity against human Jurkat cells by MTT assay; format: functional, cell-based
[3] = biological target: T1, Adenosine receptor A1 (Homo sapiens) (UniProt P30542); test: Displacement of [3H]DPCPX from adenosine A1 receptor in human HeLa cells at 100 uM by whole cell binding assay; format: cell-based
T1 sequence (whole entry): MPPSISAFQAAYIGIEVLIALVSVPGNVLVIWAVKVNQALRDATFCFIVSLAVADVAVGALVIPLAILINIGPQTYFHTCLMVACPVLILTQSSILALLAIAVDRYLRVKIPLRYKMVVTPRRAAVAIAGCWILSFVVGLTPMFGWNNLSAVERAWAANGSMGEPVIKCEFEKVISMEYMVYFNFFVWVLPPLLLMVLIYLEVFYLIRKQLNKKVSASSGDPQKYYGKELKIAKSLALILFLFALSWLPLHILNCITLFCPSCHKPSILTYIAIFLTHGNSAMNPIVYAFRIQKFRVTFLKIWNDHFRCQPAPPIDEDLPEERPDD

`COC1=C(Br)[C@H](O)[C@@]2(C=C1Br)CC(C(=O)NCCCCNC(=O)C1=NO[C@]3(C=C(Br)C(OC)=C(Br)[C@@H]3O)C1)=NO2` [AEROTHIONIN] showed an EC50 (HeLa) of 42 µM.

`COC1=C(Br)[C@H](O)[C@@]2(C=C1Br)CC(C(=O)NCCc1c(Br)cc(OCCCN(C)C)cc1Br)=NO2` [PUREALIDIN Q] showed an IC50 (KB) of 1.2 µg/mL (≈ 1.61 µM) and an IC50 (L1210) of 0.95 µg/mL (≈ 1.27 µM).

With `COC1=C(Br)[C@H](O)[C@@]2(C=C1Br)CC(C(=O)NCCCOc1c(Br)cc(CCN(C)C)cc1Br)=NO2` the IC50 (KB) was 7.6 µg/mL (≈ 10.2 µM) and the IC50 (L1210) was 2.8 µg/mL (≈ 3.76 µM).

For `COC1=C(Br)C[C@]2(OC=C1Br)ON=C(C(=O)NCCCOc1c(Br)cc(CCNC=C3C(=O)C=CC3=O)cc1Br)[C@@H]2O` (relative stereo), the IC50 (P388) was 2.1 µg/mL (≈ 2.5 µM).

Compound `COC1=C(Br)[C@H](O)[C@@]2(C=C1Br)CC(C(=O)NCCCOc1c(Br)cc(CCNC(=O)C3=NO[C@]4(C=C(Br)C(OC)=C(Br)[C@@H]4O)C3)cc1Br)=NO2` has an EC50 (HeLa) of 2.6 µM.

Compound `COC1=C(Br)[C@H](O)[C@@]2(C=C1Br)CC(C(=O)NCC(O)COc1c(Br)cc(C(O)CNC(=O)C3=NO[C@]4(C=C(Br)C(OC)=C(Br)[C@@H]4O)C3)cc1Br)=NO2` (stereo not given in full) has an IC50 (U-937 [1]) of 7.39 µM, an Activity (U-937 [2]) of 35% and an IC50 (Jurkat) of 7.39 µM.

Work on `COC1=C(Br)[C@H](O)[C@@]2(C=C1Br)CC(C(=O)NCCCOc1c(Br)cc(C(O)CNC(=O)C3=NO[C@]4(C=C(Br)C(OC)=C(Br)[C@@H]4O)C3)cc1Br)=NO2` (stereo not given in full) yielded an IC50 (U-937 [1]) of 8.1 µM, an Activity (U-937 [2]) of 35% and an IC50 (Jurkat) of 8.1 µM.

`COC1=C(Br)[C@H](O)[C@@]2(C=C1Br)CC(C(=O)NCCCOc1c(Br)cc(CCNS(=O)(=O)O)cc1Br)=NO2` gave an inhibition [3] of 61% and an EC50 (HeLa) of 60 µM.
